Experimental data taken from the Deep4Chem optical property database.
Values joined by “and” are separate entries in the source; they are usually repeats but may differ in a detail not shown here. Identical values can stand only once. One block for each compound: values may come before it.

Assay: solvent given as SMILES

Structure (SMILES): CC(C)[Si]1(C(C)C)c2cc(N(C)C)ccc2-c2ccc(C(F)(F)F)cc21
absorption maximum (in C1CCCCC1): 331 nm
absorption maximum (in CC#N): 337 nm
absorption maximum (in CCO): 335 nm
absorption maximum (in CCOCC): 334 nm
absorption maximum (in CS(C)=O): 344 nm
absorption maximum (in ClCCl): 338 nm
absorption maximum (in c1ccccc1): 338 nm

Structure (SMILES): O=Cc1ccc(-c2ccc(C3=CCC(c4ccccc4)CC3)s2)s1 (stereo not given)
absorption maximum (in C1CCOC1): 385 nm
absorption maximum (in CC#N): 385 nm
absorption maximum (in CCCCCC): 380 nm
absorption maximum (in CCO): 389 nm
absorption maximum (in OCCOCCO): 389 nm
absorption maximum (in c1ccncc1): 393 nm

absorption maximum (in CCO): 378 nm
Structure (SMILES): COc1cc2c(cc1F)c(=O)c1cc(F)c(OC)cc1n2-c1ccccc1

absorption maximum (in CC#N): 388 nm
absorption maximum (in CCO): 319 nm
absorption maximum (in ClCCl): 395 nm
Structure (SMILES): C[P+]1(c2ccccc2)C2=C(c3ccccc31)S(=O)(=O)c1ccccc12 (stereo not given)

absorption maximum (in ClCCl): 407 nm
Structure (SMILES): N#Cc1ccc(N(c2ccccc2)c2ccc3ccc4c(N(c5ccccc5)c5ccc(C#N)cc5)ccc5ccc2c3c54)cc1

absorption maximum (in C1CCOC1): 342 nm
Structure (SMILES): COC(=O)c1ccc(-c2ccc3c(c2)C(=O)c2cc(-c4ccc(C(=O)OC)cc4)ccc2-3)cc1

absorption maximum (in ClCCl): 357 nm
Structure (SMILES): O=c1cc(-c2nc3ccccn3c2NC2CCCCC2)occ1OCc1ccccc1

absorption maximum (in ClC(Cl)Cl): 609 nm
Structure (SMILES): CCCCCCCCN1C(=O)c2ccc3c4c(-c5ccc6c(c5)c5ccccc5n6-c5ccccc5)cc5c6c(ccc(c7c(-c8ccc9c(c8)c8ccccc8n9-c8ccccc8)cc(c2c37)C1=O)c64)C(=O)N(CCCCCCCC)C5=O

absorption maximum (in ClCCl): 347 nm
Structure (SMILES): F[B-]1(F)Oc2ccccc2-c2c3c(c4c([n+]21)CCc1ccccc1-4)CCc1ccccc1-3

Structure (SMILES): CC1(C)c2ccccc2N(c2cccc(S(=O)(=O)c3cccc(N4c5ccccc5C(C)(C)c5ccccc54)c3)c2)c2ccccc21
absorption maximum (in C1CCOC1): 281 nm
absorption maximum (in Cc1ccccc1): 301 nm
absorption maximum (in ClC(Cl)Cl): 287 nm

absorption maximum (in ClCCl): 489 nm
Structure (SMILES): COCCOCCOCCOCC(COCCOCCOCCOC)Oc1cc(/C=C/c2ccc(C=C3C(=O)c4ccccc4C3=O)cc2)c(OC(COCCOCCOCCOC)COCCOCCOCCOC)cc1/C=C/c1ccc(C=C2C(=O)c3ccccc3C2=O)cc1

Structure (SMILES): CC1(C)c2ccccc2N(c2ccc3c(c2)Oc2ccccc2P3(=O)c2ccccc2)c2ccccc21 (stereo not given)
absorption maximum (in Cc1ccccc1): 348 nm

absorption maximum (in ClC(Cl)Cl): 402 nm
Structure (SMILES): O[Si](c1c2ccccc2cc2ccccc12)(c1c2ccccc2cc2ccccc12)c1c2ccccc2cc2ccccc12

absorption maximum (in CC#N): 285 nm
absorption maximum (in CO): 285 nm
Structure (SMILES): C1=Cc2ccccc2Cc2ccccc21

absorption maximum (in CC#N): 369 nm
absorption maximum (in CCCCCCC): 357 nm
absorption maximum (in CO): 367 nm
absorption maximum (in O): 378 nm
Structure (SMILES): O=[N+]([O-])c1ccc(/C=C/c2cn(S(=O)(=O)c3ccccc3)c3ccccc23)cc1

absorption maximum (in CC1CCCCC1): 386 nm
absorption maximum (in CC#N): 387 nm
Structure (SMILES): C(=C\c1c2ccccc2cc2ccccc12)/c1ccc2ccccc2c1

Structure (SMILES): COc1ccc2c3c(c4ccc(C(C)(C)C)cc4c2c1)=C(c1cc(OC)c(OC)c(OC)c1)C1=Nc2c(-c4cc(OC)c(OC)c(OC)c4)c4c5ccc(C(C)(C)C)cc5c5cc(OC)ccc5c4n2[B-](F)(F)[N+]=31
absorption maximum (in Cc1ccccc1): 797 nm

absorption maximum (in CCO): 561 nm
absorption maximum (in O): 542 nm
Structure (SMILES): COc1cccc(OC)c1-c1c2ccc(=[N+]3CCNCC3)cc-2oc2cc(N3CCNCC3)ccc12

absorption maximum (in ClCCl): 368 nm
Structure (SMILES): C[Si]1(C)O[Si](C)(C)c2cc3nc4ccccc4c(-c4ccccc4)c3cc2[Si](C)(C)O1

absorption maximum (in C1CCCCC1): 324 nm
absorption maximum (in C1COCCO1): 324 nm
absorption maximum (in CC#N): 326 nm
absorption maximum (in CCO): 328 nm
absorption maximum (in CCOC(C)=O): 325 nm
absorption maximum (in CN(C)C=O): 326 nm
absorption maximum (in CO): 328 nm
absorption maximum (in c1ccccc1): 324 nm
Structure (SMILES): Cc1cc2ccc(-c3cccc4cccc(-c5ccc6cc(C)c(=O)oc6c5)c34)cc2oc1=O

Structure (SMILES): CCCC1=Cc2nc1ccc1[nH]c(cc1CCOC)c1nc(ccc3[nH]c2cc3CCC)C(CCC)=C1
absorption maximum (in Cc1ccccc1): 637 nm

absorption maximum (in CN(C)C=O): 593 nm
absorption maximum (in ClC(Cl)Cl): 593 nm
Structure (SMILES): COc1cc2c(cc1OC)C1=C3C(=O)N4C=Cc5cc(OC)c(OC)cc5C4=C3C(=O)N1C=C2

absorption maximum (in CCO): 656 nm
Structure (SMILES): CCN(C(C)=O)c1cc2c(cc1C)C(c1ccccc1C(=O)O)=C1CCCC(/C=C/C3=[N+](C)c4ccccc4C3(C)C)=C1O2

absorption maximum (in CC#N): 380 nm
absorption maximum (in CCCCCC): 387 nm
absorption maximum (in CO): 382 nm
absorption maximum (in CS(C)=O): 392 nm
absorption maximum (in ClC(Cl)Cl): 385 nm
Structure (SMILES): COc1c(/C=N/Nc2ccc(C#N)cc2)ccc2ccccc12

absorption maximum (in ClCCl): 394 nm
Structure (SMILES): CC(C)(C)c1ccc(-c2cc(-c3ccc(-c4cc(-c5ccc(C(C)(C)C)cc5)c(C(=O)NCc5ccccc5)s4)s3)sc2C(=O)NCc2ccccc2)cc1

Structure (SMILES): CCC1(CC)c2cc(N(C)C)ccc2-c2ccc(C(F)(F)F)cc21
absorption maximum (in C1CCCCC1): 341 nm
absorption maximum (in CC#N): 302 nm
absorption maximum (in CCO): 342 nm
absorption maximum (in CCOCC): 342 nm
absorption maximum (in CS(C)=O): 350 nm
absorption maximum (in ClCCl): 344 nm
absorption maximum (in c1ccccc1): 346 nm

absorption maximum (in ClCCl): 366 nm
Structure (SMILES): COc1ccc(-c2cnc3cccc(-c4ccc(C(C)=O)cc4)n23)cc1

absorption maximum (in ClCCl): 411 nm
Structure (SMILES): N#Cc1ccccc1N1c2sc3ccccc3c2Sc2c1sc1ccccc21

absorption maximum (in C1CCOC1): 546 nm
Structure (SMILES): CC1=CC2=C3C(=C4C(C)=C(c5ccc(-c6nc(-c7ccccc7)c(-c7ccccc7)[nH]6)cc5)S[C@@]4(C)[C@]2(C)S1)C(F)(F)C(F)(F)C3(F)F

absorption maximum (in ClC(Cl)Cl): 376 nm
Structure (SMILES): c1ccc(-c2c3c(nc4ccccc24)-c2cc4c(cc2CC3)-c2nc3ccccc3c(-c3ccccc3)c2CC4)cc1

absorption maximum (in C1COCCO1): 438 nm
Structure (SMILES): N#Cc1ccc(/C=C2\C=C(c3ccccc3)NC2=O)cc1

absorption maximum (in CCO): 369 nm
Structure (SMILES): CN(C)c1cc2c(cc1F)c(=O)c1cc(F)c(N)cc1n2C

Structure (SMILES): CC1=CC(C)=[N+]2C1=C(c1ccc(N(C)C)cc1)c1c(C)cc(/C=C/c3ccc(N(C)C)cc3)n1[B-]2(F)F
absorption maximum (in CCOCC): 591 nm

absorption maximum (in O): 506 nm
Structure (SMILES): CC(=O)OCOC(=O)CN(CC(=O)OCOC(C)=O)c1ccccc1OCCOc1cc(NC(=O)c2ccc3c(c2)C(=O)OC32c3cc(Cl)c(OC(C)=O)cc3Oc3cc(OC(C)=O)c(Cl)cc32)ccc1N(CC(=O)OCOC(C)=O)CC(=O)OCOC(C)=O

absorption maximum (in ClCCl): 328 nm
Structure (SMILES): C(=C\c1ccc(-c2ccccc2)cc1)/c1ccc(Oc2ccc3ccccc3c2-c2c(Oc3ccc(/C=C/c4ccc(-c5ccccc5)cc4)cc3)ccc3ccccc23)cc1

absorption maximum (in ClCCl): 371 nm
Structure (SMILES): C(#Cc1c(C#Cc2ccccc2)c(C#Cc2ccccc2)c(C#Cc2ccccc2)c(C#Cc2ccccc2)c1C#Cc1ccccc1)c1ccccc1

absorption maximum (in C1CCCCC1): 287.2 nm
absorption maximum (in C1COCCO1): 290 nm
absorption maximum (in CC#N): 290 nm
absorption maximum (in CC(C)(C)O): 291 nm
absorption maximum (in CC(C)CO): 292.4 nm
absorption maximum (in CC(C)O): 291.6 nm
absorption maximum (in CCOC(C)=O): 290.5 nm
absorption maximum (in CO): 293.6 nm
absorption maximum (in O): 285 nm and 283.2 nm
Structure (SMILES): COc1cc(C(=O)O)ccc1O

Structure (SMILES): CN(C)c1ccc(/C=C/C=C/c2ccc(C#N)cc2)cc1
absorption maximum (in CC#N): 402 nm
absorption maximum (in CCCC#N): 410 nm
absorption maximum (in CCCCCC): 400 nm
absorption maximum (in CCOCC): 400 nm

absorption maximum (in ClCCl): 352 nm
Structure (SMILES): Cc1cccc2nc(-c3cc(=O)c(OCc4ccccc4)co3)c(NC3CCCCC3)n12

absorption maximum (in CS(C)=O): 322.8 nm
Structure (SMILES): Cc1ccc2nc(-c3cc(-c4nc5ccc(C)cc5[nH]4)cc(-c4nc5ccc(C)cc5[nH]4)c3)[nH]c2c1
